# Assay results taken from patent US20130172308A1, “ANTIMICROBIAL AGENTS” (John Grant COLLINS, priority 2011, published 2013).
# Tests used:
# E. coli ATCC 25922 = test: MIC determination, broth micro-dilution (CAMHB); format: cell-based, Escherichia coli; conditions: Table 4; CAMHB; all ΔΔ- enantiomers
# How it was run: (§1)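 Ruthenium complexes two-fold serially diluted in cation-adjusted Mueller Hinton broth, final range 0.25–128 […], with equal volume of bacterial suspension; duplicate determinations, gentamicin as positive control. Plates incubated 37° C for 24 h; MIC by standard micro-dilution.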
# P. aeruginosa ATCC 27853 = test: MIC determination, broth micro-dilution (CAMHB); format: cell-based, Pseudomonas aeruginosa; conditions: Table 4; CAMHB; all ΔΔ- enantiomers
# How it was run: as §1
# S. aureus ATCC 25923 = test: MIC determination, broth micro-dilution (CAMHB); format: cell-based, Staphylococcus aureus; conditions: Table 4; CAMHB; all ΔΔ- enantiomers
# How it was run: as §1
# P. aeruginosa = test: Minimum Bactericidal Concentration (MBC) assay (CAMHB); format: cell-based, Pseudomonas aeruginosa; conditions: Table 4, all ΔΔ- enantiomers
# Experimental: (§2) Further MIC assays and Minimum Bactericidal Concentration (MBC) assays were conducted against Gram-positive and Gram-negative bacterial strains using symmetric and non-symmetric, inert and labile complexes.
# S. aureus = test: as above; format: cell-based, Staphylococcus aureus; conditions: Table 4, all ΔΔ- enantiomers
# Experimental: as §2
# MRSA = test: as above; format: cell-based, methicillin-resistant S. aureus; conditions: Table 4, all ΔΔ- enantiomers
# Experimental: as §2
# [1] = tested on: MRSA (a wild clinical strain from the JCU culture collection); test: MIC determination, broth micro-dilution (CAMHB); format: cell-based, methicillin-resistant S. aureus; conditions: Table 4; CAMHB; all ΔΔ- enantiomers
# How it was run: as §1
# E. coli = test: Minimum Bactericidal Concentration (MBC) assay (CAMHB); format: cell-based, Escherichia coli; conditions: Table 4, all ΔΔ- enantiomers
# Experimental: as §2
# [2] = tested on: Plasmodium falciparum strain W2; test: [3H]-hypoxanthine growth inhibition assay; format: cell-based; conditions: mean (SD), 96 h exposure, chloroquine-resistant strain; for IC50: read-out: IC50 W2; for IC90: read-out: IC90 W2
# Experimental: (§3) The in vitro antimalarial activities of two of the dinuclear ruthenium(II) complexes and chloroquine were assessed by exposing P. falciparum strains to ten serially diluted two-fold concentrations of each compound. Parasite growth was measured by uptake of tritiated [^3H]-hypoxanthine into newly synthesised parasitic DNA.
# (§4) The [^3H]-hypoxanthine growth inhibition assay (Desjardins et al., 1979 Antimicrobial Agents Chemother 16: 710-718) was used to evaluate the in vitro antimalarial activity of the compounds. Briefly, synchronised parasite cultures (>90% rings, 6 to 8 h post invasion) in [^3H]-RPMI-LPLF complete medium with 0.5% parasitaemia and 2% haematocrit were exposed to the compounds at ten two-fold concentrations, ranging from 10,000 to 20 nM in 96-well microtitre plates. Chloroquine was used as a reference drug. Uninfected RBCs at 2% haematocrit were used as background controls. For the 96 h exposure period, the plates were incubated in the gas mixture at 37° C. for approximately 48 h, followed by the addition of 0.2 μCi of ^3H-hypoxanthine (GE Healthcare, Amersham) in [^3H]-RPMI-1640-LPLF to each well and a further 48 h of incubation and then frozen at −20° C. Plates were thawed and harvested using Tomtech Harvester 96 Mach III and radioactive counts were obtained using Wallac TriLux 1450 Microbeta Liquid Scintillation Counter (Perkin Elmer, USA). All assays were performed in triplicate for each strain and at least on two separate occasions.
# (§5) Tritiated hypoxanthine uptake data were analysed in Graphpad Prism V5.0 software (GraphPad Software Inc. USA). The concentrations of the dinuclear ruthenium(II) complexes and chloroquine were transformed into logarithmic values. After subtracting the background values, the data from drug-treated wells were normalised against drug-free control wells. Non-linear regression analysis was carried out of the compound's concentration versus parasitic hypoxanthine incorporation. The in vitro antimalarial activity of the compound is defined as inhibitory concentrations (IC50) and (IC90) that cause 50% and 90% inhibition of parasite growth as determined by measuring [^3H]-hypoxanthine incorporation.
# [3] = tested on: Plasmodium falciparum strain D6; test: [3H]-hypoxanthine growth inhibition assay; format: cell-based; conditions: mean (SD), 96 h exposure, chloroquine-sensitive strain; for IC50: read-out: IC50 D6; for IC90: read-out: IC90 D6
# Experimental: as §3, §4, §5
# [4] = format: physicochemical; conditions: pH 7.4
# Experimental: The primary difference between the members of the Rubbn family of complexes is the number of methylene groups in the flexible linking chain. […] Lipophilicity is a significant factor affecting the biological activity of most therapeutic compounds, as it relates to the capacity of the drug to penetrate through the cell membrane. The standard octanol-water partition coefficient (logP) was determined for the Rubbn series (F. Lombardo, B. Faller, M. Shalaeva, I. Tetko and S. Tilton, Methods and Principles in Medicinal Chemistry, 2008, 37, 407) parent model mononuclear species ([Ru(phen)2(Me2bpy)]^2+) and the trinuclear and tetranuclear complexes.
# The partition coefficients (logP) were measured using the shake flask technique: each ruthenium complex (at both 0.05 and 0.1 mM) was dissolved in the water phase (0.2 M Na2HPO4—NaH2PO4 buffer, pH=7.4) and an equivalent volume of n-octanol was added.
# The two phases were mutually saturated by shaking overnight at ambient temperature and then were allowed to separate on standing. The concentration of the metal complex in each phase was determined spectrophotometrically at l=450 nm.
Molecule,MIC E. coli (E. coli ATCC 25922),MIC P. aeruginosa (P. aeruginosa ATCC 27853),MIC S. aureus (S. aureus ATCC 25923),MBC P. aeruginosa (P. aeruginosa) [µg/mL],MBC S. aureus (S. aureus) [µg/mL],MBC MRSA (MRSA) [µg/mL],MIC MRSA [1],MBC E. coli (E. coli) [µg/mL],IC50 [2] [nM],IC90 [2] [nM],IC50 [3] [nM],IC90 [3] [nM],logP [4]
"Cc1ccnc(-c2cc(CCCCCCCCCCCCCCCCc3ccnc(-c4cc(C)ccn4)c3)ccn2)c1.[Cl-].[Cl-].[Cl-].[Cl-].[Ru+2].[Ru+2].c1cnc2c(c1)ccc1cccnc12.c1cnc2c(c1)ccc1cccnc12.c1cnc2c(c1)ccc1cccnc12.c1cnc2c(c1)ccc1cccnc12 [Rubb16, [{Ru(phen)2}2(μ-bb16)]Cl4]",2,8,1,8,1,2,1,2,289,444,226,413,−1.9
[{Ru(phen)2}2(μ-bb12)] [Rubb12],2,16,1,32,2,2,1,2,739,1400,733,1250,−2.7
